Reference: patent publication US8722849B2, “Polypeptides” (Novo Nordisk A/S, priority 2011, dated 2014)
Converted amounts (≈) assume the structure as drawn. Read-outs that look alike come from different tables or passages of the source. Starred links: 1 amine or outer side, 2 acyl side, 3 side chain; linkers in the order of their positions; H or OH if unused. Positions of bridges follow the written chain, without caps; N, C: chain ends. Residues, ends and D or L forms follow the SMILES beside them. Groups on a side chain read outwards from the residue. *: point of attachment. C20 diacid = O=C(O)CCCCCCCCCCCCCCCCCCC(=O)*; C18 diacid = O=C(O)CCCCCCCCCCCCCCCCC(=O)*; γGlu = O=C(O)[C@H](CCC(=O)[*:2])N[*:1]; AEEA = NCCOCCOCC(=O)O

Key:
[1] = molecular target: T1, human amylin receptor (amylin 3(a) receptor: human calcitonin receptor + RAMP-3) (Homo sapiens, UniProt O60896+P30988); experiment: Assay (II)a functional CRE-luciferase assay, human amylin receptor; format: cell-based; conditions: Table 2; BHK amylin 3(a)-receptor/CRE-luc cells
T1 construct: expressed in transfected cells; host or cells: BHK570
T1 sequence (P30988 25-474): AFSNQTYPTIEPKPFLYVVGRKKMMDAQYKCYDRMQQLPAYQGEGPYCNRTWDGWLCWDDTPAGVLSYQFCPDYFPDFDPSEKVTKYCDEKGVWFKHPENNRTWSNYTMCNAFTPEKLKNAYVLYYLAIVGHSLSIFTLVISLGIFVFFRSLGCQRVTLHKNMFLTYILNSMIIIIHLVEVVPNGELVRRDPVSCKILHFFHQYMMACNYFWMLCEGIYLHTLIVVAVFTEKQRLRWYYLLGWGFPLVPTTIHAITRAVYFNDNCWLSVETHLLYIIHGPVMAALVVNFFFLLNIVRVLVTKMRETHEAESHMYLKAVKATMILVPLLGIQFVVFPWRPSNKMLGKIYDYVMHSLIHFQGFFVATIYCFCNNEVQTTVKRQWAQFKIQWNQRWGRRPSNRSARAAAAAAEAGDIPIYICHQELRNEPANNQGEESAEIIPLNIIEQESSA
T1 sequence (O60896 24-148 partner): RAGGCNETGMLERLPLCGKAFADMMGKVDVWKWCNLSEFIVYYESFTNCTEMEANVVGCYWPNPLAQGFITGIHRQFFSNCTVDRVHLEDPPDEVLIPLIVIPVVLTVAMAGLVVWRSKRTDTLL

[2] = molecular target: T2, human calcitonin receptor (Homo sapiens, UniProt P30988); experiment: Assay (II)a functional CRE-luciferase assay, human calcitonin receptor; format: cell-based
T2 construct: expressed in transfected cells; host or cells: BHK570
T2 sequence (P30988 25-474): T1 sequence (P30988 25-474)

[3] = Assay (IV) determination of solubility; format: physicochemical
Procedure, shortened: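 Eight 100 mM buffers (glycylglycine pH 3.0–5.0, bistrispropane pH 6.0–8.0) each received an equal volume of polypeptide dissolved in water at ~500 nmol/ml. Soluble polypeptide was measured by HPLC following 18 hours at room temperature and centrifugation.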

[4] = Assay (III) ThT fibrillation assay for physical stability; format: physicochemical
Procedure, shortened: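 Freshly prepared formulations, pH-adjusted, with 1 μM ThT; four or eight replicates incubated at 37 °C under 960 rpm orbital shaking. Fluorescence (ex 444/em 485 nm) read every 20 min; […]. Peptide concentration measured by RP-HPLC before and after the run.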

[5] = bistrispropane buffer, pH 6, pH 6.0, read-out: Solubility pH 6.0
[6] = bistrispropane buffer, pH 6.5, pH 6.5, read-out: Solubility pH 6.5
[7] = bistrispropane buffer, pH 7, pH 7.0, 18 hours at room temperature, Table 3, read-out: Solubility pH 7.0
[8] = bistrispropane buffer, pH 7, pH 7.0, Table 8, read-out: Solubility pH 7.0
[9] = bistrispropane buffer, pH 7, pH 7.0, read-out: Solubility pH 7.0
[10] = bistrispropane buffer, pH 7.5, pH 7.5, read-out: Solubility pH 7.5
[11] = bistrispropane buffer, pH 8, pH 8.0, read-out: Solubility pH 8.0
[12] = glycylglycine buffer, pH 3, pH 3.0, read-out: Solubility pH 3.0
[13] = glycylglycine buffer, pH 4, pH 4.0, 18 hours at room temperature, Table 2, read-out: Solubility pH 4.0
[14] = glycylglycine buffer, pH 4, pH 4.0, read-out: Solubility pH 4.0
[15] = glycylglycine buffer, pH 5, pH 5.0, read-out: Solubility pH 5.0
[16] = Table 7, human calcitonin (CTa) receptor

| Structure (SMILES) | EC50 [1] [nM] | EC50 ([2]; Table 11, read-out: CTa receptor human EC50) [nM] | solubility at 18 h [3, 5] [µM] | solubility at 18 h [3, 6] [µM] | solubility at 18 h [3, 7] [µM] | solubility at 18 h [3, 8] [µM] | solubility at 18 h ([3]; bistrispropane buffer, pH 7, pH 7.0, Table 9, read-out: Solubility pH 7.0) [µM] | solubility at 18 h [3, 9] [µM] | solubility at 18 h ([3]; bistrispropane buffer, pH 7.5, pH 7.5, Table 9, read-out: Solubility pH 7.5) [µM] | solubility at 18 h [3, 10] [µM] | solubility at 18 h [3, 11] [µM] | solubility at 18 h [3, 12] [µM] | solubility at 18 h [3, 13] [µM] | solubility at 18 h [3, 14] [µM] | solubility at 18 h [3, 15] [µM] | ThT pH 4.0 lag time ([4]; Table 8) [h] | ThT pH 4.0 lag time ([4]; Table 9) [h] | ThT pH 4.0 lag time ([4]; ThT fibrillation assay) [h] | ThT pH 4.0 lag time (h) ([4]; ThT fibrillation assay) | EC50 [2, 16] [nM] |
| --- | --- | --- | --- | --- | --- | --- | --- | --- | --- | --- | --- | --- | --- | --- | --- | --- | --- | --- | --- | --- |
| CC[C@H](C)[C@H](NC(=O)[C@@H]1CCCN1C(=O)CNC(=O)[C@H](Cc1ccccc1)NC(=O)[C@H](CC(N)=O)NC(=O)[C@H](CO)NC(=O)[C@H](CO)NC(=O)[C@H](CO)NC(=O)[C@H](Cc1c[nH]cn1)NC(=O)[C@H](CCCCNC(=O)COCCOCCNC(=O)COCCOCCNC(=O)CC[C@H](NC(=O)CCCCCCCCCCCCCCCCC(=O)O)C(=O)O)NC(=O)[C@H](CC(C)C)NC(=O)[C@H](Cc1ccccc1)NC(=O)[C@H](CCC(=O)O)NC(=O)[C@H](C)NC(=O)[C@H](CC(C)C)NC(=O)[C@H](CCCNC(=N)N)NC(=O)[C@H](CCC(N)=O)NC(=O)[C@@H](NC(=O)[C@H](C)NC(=O)[C@@H]1CSSC[C@H](NC(=O)[C@@H](N)CCCCN)C(=O)N[C@@H](CC(N)=O)C(=O)N[C@@H]([C@@H](C)O)C(=O)N[C@@H](C)C(=O)N[C@@H]([C@@H](C)O)C(=O)N1)[C@@H](C)O)C(=O)N[C@@H](CC(C)C)C(=O)N1CCC[C@H]1C(=O)N1CCC[C@H]1C(=O)N[C@H](C(=O)N[C@@H](CC(N)=O)C(=O)N[C@H](C(=O)NCC(=O)N[C@@H](CO)C(=O)N[C@@H](CCC(=O)O)C(=O)N[C@H](C(=O)N[C@@H](Cc1ccc(O)cc1)C(N)=O)[C@@H](C)O)C(C)C)[C@@H](C)O [Example 83, N-epsilon17-[2-(2-{2-[2-(2-{2-[(S)-4-Carboxy-4-(17-carboxyheptadecanoylamino)butyrylamino]ethoxy}ethoxy)acetylamino]ethoxy}ethoxy)acetyl]-[Glu14,Lys17,Ser21,Glu35]-pramlintide] (H-KCNTATCATQRLAEFLK([AEEA-AEEA-γGlu-C18 diacid])HSSSNFGPILPPTNVGSETY-NH2; disulfide 2-7 (inferred); N-terminus and C-terminus assumed) | 1.75 | 8.43 | > 200 | > 200 | > 200 | > 200 | > 200 | > 200 | > 200 | > 200 | > 200 | > 200 | > 200 | > 200 | > 200 | >45 | >45 | >45 | >45 | – |
| CC[C@H](C)[C@H](NC(=O)[C@@H]1CCCN1C(=O)CNC(=O)[C@H](Cc1ccccc1)NC(=O)[C@H](CC(N)=O)NC(=O)[C@H](CC(N)=O)NC(=O)[C@H](CO)NC(=O)[C@H](CO)NC(=O)[C@H](Cc1c[nH]cn1)NC(=O)[C@H](Cc1c[nH]cn1)NC(=O)[C@H](CC(C)C)NC(=O)[C@H](Cc1ccccc1)NC(=O)[C@H](CCC(=O)O)NC(=O)[C@H](C)NC(=O)[C@H](CC(C)C)NC(=O)[C@H](CCCNC(=N)N)NC(=O)[C@H](CCC(N)=O)NC(=O)[C@@H](NC(=O)[C@H](C)NC(=O)[C@@H]1CSSC[C@H](NC(=O)[C@H](CCCCN)NC(=O)[C@H](CO)NC(=O)CC[C@H](NC(=O)CCCCCCCCCCCCCCCCCCC(=O)O)C(=O)O)C(=O)N[C@@H](CC(N)=O)C(=O)N[C@@H]([C@@H](C)O)C(=O)N[C@@H](C)C(=O)N[C@@H]([C@@H](C)O)C(=O)N1)[C@@H](C)O)C(=O)N[C@@H](CC(C)C)C(=O)N1CCC[C@H]1C(=O)N1CCC[C@H]1C(=O)N[C@H](C(=O)N[C@@H](CC(N)=O)C(=O)N[C@H](C(=O)NCC(=O)N[C@@H](CO)C(=O)N[C@@H](Cc1c[nH]cn1)C(=O)N[C@H](C(=O)N[C@@H](Cc1ccc(O)cc1)C(N)=O)[C@@H](C)O)C(C)C)[C@@H](C)O [Example 85, N-alpha-[(S)-4-Carboxy-4-(19-carboxynonadecanoylamino)butyryl]-Ser-[Glu14,His17,His35]-pramlintide] ({C20 diacid-γGlu}-SKCNTATCATQRLAEFLHHSSNNFGPILPPTNVGSHTY-NH2; disulfide 3-8 (inferred); C-terminus assumed) | 0.133 | – | 185 (≈ 845 µg/mL) | 64 (≈ 292 µg/mL) | – | – | – | 22 (≈ 100 µg/mL) | – | 47 (≈ 215 µg/mL) | 109 (≈ 498 µg/mL) | > 200 | > 200 | > 200 | > 200 | – | – | >45 | >45 | 0.153 |
| CC[C@H](C)[C@H](NC(=O)[C@@H]1CCCN1C(=O)CNC(=O)[C@H](Cc1ccccc1)NC(=O)[C@H](CC(N)=O)NC(=O)[C@H](CC(N)=O)NC(=O)[C@H](CO)NC(=O)[C@H](CO)NC(=O)[C@H](Cc1c[nH]cn1)NC(=O)[C@@H](NC(=O)[C@H](CC(C)C)NC(=O)[C@H](Cc1ccccc1)NC(=O)[C@H](CCC(=O)O)NC(=O)[C@H](C)NC(=O)[C@H](CC(C)C)NC(=O)[C@H](CCCNC(=N)N)NC(=O)[C@H](CCC(N)=O)NC(=O)[C@@H](NC(=O)[C@H](C)NC(=O)[C@@H]1CSSC[C@H](NC(=O)[C@H](CCCCN)NC(=O)CC[C@H](NC(=O)CCCCCCCCCCCCCCCCCCC(=O)O)C(=O)O)C(=O)N[C@@H](CC(N)=O)C(=O)N[C@@H]([C@@H](C)O)C(=O)N[C@@H](C)C(=O)N[C@@H]([C@@H](C)O)C(=O)N1)[C@@H](C)O)C(C)C)C(=O)N[C@@H](CC(C)C)C(=O)N1CCC[C@H]1C(=O)N1CCC[C@H]1C(=O)N[C@H](C(=O)N[C@@H](CC(N)=O)C(=O)N[C@H](C(=O)NCC(=O)N[C@@H](CO)C(=O)N[C@@H](CC(N)=O)C(=O)N[C@H](C(=O)N1CCC[C@H]1C(N)=O)[C@@H](C)O)C(C)C)[C@@H](C)O [Example 86, N-alpha-[(S)-4-Carboxy-4-(19-carboxynonadecanoylamino)butyryl]-[Glu14,Pro37]-pramlintide] ({C20 diacid-γGlu}-KCNTATCATQRLAEFLVHSSNNFGPILPPTNVGSNTP-NH2; disulfide 2-7 (inferred); C-terminus assumed) | 0.055 | – | > 200 | > 200 | > 200 | – | – | > 200 | – | > 200 | > 200 | > 200 | > 200 | > 200 | > 200 | – | – | – | 5 | 0.0525 |
| CC[C@H](C)[C@H](NC(=O)[C@@H]1CCCN1C(=O)CNC(=O)[C@H](Cc1ccccc1)NC(=O)[C@H](CC(N)=O)NC(=O)[C@H](CC(N)=O)NC(=O)[C@H](CO)NC(=O)[C@H](CO)NC(=O)[C@H](Cc1c[nH]cn1)NC(=O)[C@H](Cc1c[nH]cn1)NC(=O)[C@H](CC(C)C)NC(=O)[C@H](Cc1ccccc1)NC(=O)[C@H](CCC(=O)O)NC(=O)[C@H](C)NC(=O)[C@H](CC(C)C)NC(=O)[C@H](CCCNC(=N)N)NC(=O)[C@H](CCC(N)=O)NC(=O)[C@@H](NC(=O)[C@H](C)NC(=O)[C@@H]1CSSC[C@H](NC(=O)CNC(=O)CC[C@H](NC(=O)CCCCCCCCCCCCCCCCCCC(=O)O)C(=O)O)C(=O)N[C@@H](CC(N)=O)C(=O)N[C@@H]([C@@H](C)O)C(=O)N[C@@H](C)C(=O)N[C@@H]([C@@H](C)O)C(=O)N1)[C@@H](C)O)C(=O)N[C@@H](CC(C)C)C(=O)N1CCC[C@H]1C(=O)N1CCC[C@H]1C(=O)N[C@H](C(=O)N[C@@H](CC(N)=O)C(=O)N[C@H](C(=O)NCC(=O)N[C@@H](CO)C(=O)N[C@@H](CC(N)=O)C(=O)N[C@H](C(=O)N1CCC[C@H]1C(N)=O)[C@@H](C)O)C(C)C)[C@@H](C)O [Example 91, N-alpha-[(S)-4-Carboxy-4-(19-carboxynonadecanoylamino)butyryl]-[Gly1,Glu14,His17,Pro37]-pramlintide] ({C20 diacid-γGlu}-GCNTATCATQRLAEFLHHSSNNFGPILPPTNVGSNTP-NH2; disulfide 2-7 (inferred); C-terminus assumed) | 0.054 | – | > 200 | > 200 | > 200 | > 200 | – | > 200 | – | > 200 | > 200 | > 200 | > 200 | > 200 | > 200 | 29 | – | 29 | 29 | 0.052 |
